According to patent US20050112185A1, “Positively charged lipid and liposome with the lipid” (priority 2002, published 2005):

What was measured:
[1] = tested on: 293 human kidney cell line; assay: Gene delivery efficiency (luciferase gene) with varied amounts of DNA, 293 cells; type: cell-based; conditions: DNA:liposome 1:12 (w/w), luciferase gene 0.5, 1, 2 and 5 μg tested, FIGS. 1a-1c
Experimental: (§1) For the evaluation of gene delivery efficiency of liposomes with varied amount of DNA, DNA-liposome complex was prepared by mixing DNA and liposome(1:12, w/w) in 500 μl of serum-free medium, while varying the amounts of luciferase gene as 0.5 μg, 1 μg, 2 μg and 5 μg. […] After incubation, media were discarded, cells were lysed by adding 100 μl of Luciferase cell culture lysis reagent(Promega, USA), and centrifuged at 14000 rpm for 10 sec. And then, 10 μl of supernatant was mixed with 20 μl of a substrate of luciferase, and luminescence was measured by using Luminometer(Mini lumat LB9506, EG&G BERTHOLD). Proteins in each well were quantitated by DC protein assay(Bio-rad, USA)(see: FIGS. 1a-1c and 2a-2c).

[2] = tested on: mouse melanoma cell B16BL6; assay: Gene delivery efficiency (luciferase gene) with varied amounts of DNA, B16BL6 cells; type: cell-based; conditions: DNA:liposome 1:12 (w/w), luciferase gene 0.5, 1, 2 and 5 μg tested, FIGS. 2a-2c
Experimental: Mouse melanoma cells […] were inoculated in MEM(minimum essential medium, Gibco-BRL, USA) containing 5% (v/v) fetal bovine serum, streptomycin and penicillin, and incubated in an incubator(NAPCO, USA) under an environment of 5% (v/v) CO2 at 37° C., which were aliquoted in 24-well plate to reach the cell density of 1×10^5 cell/well or 5×10^4 cell/well, and further incubated for 24 hrs to stabilize the cells.
as §1

| Substance | amount of DNA showing the highest gene delivery efficiency [1] [µg] | amount of DNA showing the highest gene delivery efficiency [2] [µg] |
| --- | --- | --- |
| lysine-aspartate-tetradecanol [KD-DM] | 1 | 1 |
| lysine-glutamate-tetradecanol [KE-DM] | 2 | – |
| lysine-aspartate-hexadecanol [KD-DP] | 2 | 0.5 |
